What was measured:
[1] = system: Hordeum vulgare; assay: Post-emergence application in field trials, HORVX; assay type: in vivo; conditions: HORVX growth stage 23-29
Description: (§1) In the examples below, using the method of S. R. Colby (1967) “Calculating synergistic and antagonistic responses of herbicide combinations”, Weeds 15, p. 22ff., the value E, which is expected if the activity of the individual active compounds is only additive, was calculated:
(§2) [formula] • where • X=percent activity using active herbicide A at an application rate a; • Y=percent activity using active herbicide B (i.e. isoxaflutole) at an application rate b; • E=expected activity (in %) by A+B at application rates a+b.
(§3) If the value found experimentally is higher than the value E calculated according to Colby, a synergistic effect is present.
(§4) On field test sites, natural weed infestation or seeded weeds were treated post-emergence of the weeds.
(§5) In the field trials, the weeds were treated as indicated below.
(§6) In the following experiments, the herbicidal activity for the individual herbicidal compositions (solo and mixture applications) was assessed at the indicated days after treatment (DAT). The assessments for the damage on undesired weeds caused by the composition was carried out using a scale from 0 to 100%, compared to the untreated control plants. Here, 0 means no damage and 100 means complete destruction of the plants.
(§7) Herbicide A-1 and isoxaflutole (240 g/l SC, Balance Flexx®) were, together with addition of 0.25 v/v % MSO (methylated sed oil) as adjuvant, formulated in water as distribution medium (water volume 200 l/ha) and sprayed with commercial flat fan nozzles.

[2] = system: Lolium multiflorum; assay: Post-emergence application in field trials, LOLMU; assay type: in vivo; conditions: LOLMU height 20-25 cm, 100 g ai/ha
Description: as §1, §2, §3, §4, §5, §6
(§8) Herbicide A-1, isoxaflutole (240 g/l SC), saflufenacil (342 g/l) and pyroxasulfone were, together with addition of 0.25 v/v % MSO (methylated sed oil) as adjuvant, formulated in water as distribution medium (water volume 200 l/ha) and sprayed with commercial flat fan nozzles.

[3] = system: Glycine max; assay: Post-emergence application in field trials, GLXMA; assay type: in vivo; conditions: GLXMA growth stage 13, 100 g ai/ha
Description: as §1, §2, §3, §4, §5, §6
(§9) Herbicide A-1 and isoxaflutole (240 g/l SC) were, together with addition of 0.25 v/v % MSO (methylated sed oil) as adjuvant, formulated in water as distribution medium (water volume 200 l/ha) and sprayed with commercial flat fan nozzles.

[4] = system: Zea mays; assay: Post-emergence application in field trials, ZEAMX; assay type: in vivo
Description: as §1, §2, §3, §4, §5, §6, §9, §7
(§10) Herbicide A-1, isoxaflutole (240 g/l SC) and saflufenacil (342 g/l) were, together with addition of 0.25 v/v % MSO (methylated sed oil) as adjuvant, formulated in water as distribution medium (water volume 200 l/ha) and sprayed with commercial flat fan nozzles.
as §8

[5] = system: Ipomoea triloba; assay: Post-emergence application in field trials, IPOTR; assay type: in vivo; conditions: Table 1.1; IPOTR growth stage 35; 21 DAT; 100 g ai/ha
Description: as §1, §2, §3, §4, §5
(§11) In the following experiments, the herbicidal activity for the individual herbicidal compositions (solo and mixture applications) was assessed at the indicated days after treatment (DAT). The assessments for the damage on undesired weeds caused by the composition was carried out using a scale from 0 to 100%, compared to the untreated control plants. Here, 0 means no damage and 100 means complete destruction of the plants. […]

[6] = system: Amaranthus retroflexus; assay: Post-emergence application in field trials, AMARE; assay type: in vivo
Description: as §1, §2, §3, §4, §5, §6, §7, §8

[7] = system: Echinochloa crus-galli; assay: Post-emergence application in field trials, ECHCG; assay type: in vivo
Description: as §1, §2, §3, §4, §5, §6, §9, §7, §10, §8

[8] = system: Euphorbia heterophylla; assay: Post-emergence application in field trials, EPHHL; assay type: in vivo; conditions: Table 1.1; EPHHL growth stage 35; 21 DAT; 100 g ai/ha
Description: as §1, §2, §3, §4, §5, §11

[9] = system: Setaria verticillata; assay: Post-emergence application in field trials, SETVE; assay type: in vivo; conditions: SETVE growth stage 21-23
Description: as §1, §2, §3, §4, §5, §6, §9, §7

[10] = system: HORVW; assay: Post-emergence application in field trials, HORVW; assay type: in vivo, Hordeum vulgare; conditions: HORVW height 20-25 cm, 100 g ai/ha
Description: as §1, §2, §3, §4, §5, §6, §8

[11] = system: Amaranthus hybridus; assay: Post-emergence application in field trials, AMACH; assay type: in vivo; conditions: Table 1.1; AMACH growth stage 35; 21 DAT; 100 g ai/ha
Description: as §1, §2, §3, §4, §5, §11

[12] = system: Abuthilon theophrasti; assay: Post-emergence application in field trials, ABUTH; assay type: in vivo; conditions: ABUTH growth stage 14-16
Description: as §1, §2, §3, §4, §5, §6, §7

[13] = system: Datura stramonium; assay: Post-emergence application in field trials, DATST; assay type: in vivo; conditions: 100 g ai/ha
Description: as §1, §2, §3, §4, §5, §6, §9, §10

[14] = system: Spermacoce latifolia; assay: Post-emergence application in field trials, BOILF; assay type: in vivo; conditions: Table 1.1; BOILF growth stage 40; 21 DAT; 100 g ai/ha
Description: as §1, §2, §3, §4, §5, §6
Herbicide A-1 and isoxaflutole (75% WG) were, together with addition of 0.5 v/v % MSO (methylated sed oil) as adjuvant, formulated in water as distribution medium (water volume 200 l/ha) and sprayed with commercial flat fan nozzles.

CS(=O)(=O)c1cc(C(F)(F)F)ccc1C(=O)c1cnoc1C1CC1 [B, isoxaflutole]
% herbicidal activity ([1]; Table 3.1, 7 DAT, 56 g ai/ha): 10%
% herbicidal activity ([1]; Table 3.1, 7 DAT, 80 g ai/ha): 10%
% herbicidal activity ([1]; Table 3.2, 21 DAT, 56 g ai/ha): 10%
% herbicidal activity ([1]; Table 3.2, 21 DAT, 80 g ai/ha): 10%
% herbicidal activity ([2]; Table 5.4, 7 DAT): 20%
% herbicidal activity ([2]; Table 5.8, 21 DAT): 20%
% herbicidal activity ([3]; Table 2.1, 7 DAT): 25%
% herbicidal activity ([3]; Table 2.2, 21 DAT): 35%
% herbicidal activity ([3]; Table 2.3, 21 DAT): 40%
% herbicidal activity ([4]; Table 2.1, ZEAMX growth stage 15-16, 7 DAT, 100 g ai/ha): 10%
% herbicidal activity ([4]; Table 3.2, ZEAMX growth stage 15-16, 21 DAT, 56 g ai/ha): 0%
% herbicidal activity ([4]; Table 3.2, ZEAMX growth stage 15-16, 21 DAT, 80 g ai/ha): 0%
% herbicidal activity ([4]; Table 3.3, ZEAMX growth stage 15-16, 28 DAT, 56 g ai/ha): 0%
% herbicidal activity ([4]; Table 4.1, ZEAMX growth stage 15-16, height 25-30 cm, 7 DAT, 100 g ai/ha): 10%
% herbicidal activity ([4]; Table 5.12, 7 DAT, height 25-30 cm, B 100 g ai/ha): 10%
% herbicidal activity ([4]; Table 5.4, ZEAMX height 25-30 cm, 7 DAT, 100 g ai/ha): 10%
% herbicidal activity ([4]; Table 5.5, ZEAMX height 25-30 cm, 21 DAT, 100 g ai/ha): 7%
% herbicidal activity ([4]; Table 5.6, ZEAMX height 25-30 cm, 28 DAT, 100 g ai/ha): 0%
% herbicidal activity ([4]; Table 5.7, ZEAMX height 25-30 cm, 7 DAT, 100 g ai/ha): 10%
% herbicidal activity ([4]; Table 5.8, ZEAMX height 25-30 cm, 21 DAT, 100 g ai/ha): 7%
% herbicidal activity ([4]; Table 5.9, ZEAMX height 25-30 cm, 28 DAT, 100 g ai/ha): 0%
% herbicidal activity [5]: 19%
% herbicidal activity ([6]; Table 3.4, AMARE growth stage 31-49, 42 DAT, 80 g ai/ha): 45%
% herbicidal activity ([6]; Table 5.4, AMARE height 8-20 cm, 7 DAT, 100 g ai/ha): 30%
% herbicidal activity ([7]; Table 2.1, ECHCG growth stage 23-30, 7 DAT, 100 g ai/ha): 40%
% herbicidal activity ([7]; Table 3.1, ECHCG growth stage 23-30, 7 DAT, 80 g ai/ha): 70%
% herbicidal activity ([7]; Table 3.2, ECHCG growth stage 23-30, 21 DAT, 56 g ai/ha): 80%
% herbicidal activity ([7]; Table 3.2, ECHCG growth stage 23-30, 21 DAT, 80 g ai/ha): 80%
% herbicidal activity ([7]; Table 4.1, ECHCG growth stage 23-30, height 15-20 cm, 7 DAT, 100 g ai/ha): 40%
% herbicidal activity ([7]; Table 5.4, ECHCG height 15-20 cm, 7 DAT, 100 g ai/ha): 40%
% herbicidal activity [8]: 22%
% herbicidal activity ([9]; Table 2.1, 7 DAT, 100 g ai/ha): 20%
% herbicidal activity ([9]; Table 3.4, 42 DAT, 56 g ai/ha): 20%
% herbicidal activity ([10]; Table 5.5, 21 DAT): 10%
% herbicidal activity ([10]; Table 5.6, 28 DAT): 10%
% herbicidal activity ([10]; Table 5.8, 21 DAT): 10%
% herbicidal activity [11]: 30%
% herbicidal activity ([12]; Table 3.1, 7 DAT, 56 g ai/ha): 40%
% herbicidal activity ([12]; Table 3.2, 21 DAT, 56 g ai/ha): 45%
% herbicidal activity ([12]; Table 3.2, 21 DAT, 80 g ai/ha): 65%
% herbicidal activity ([12]; Table 3.4, 42 DAT, 56 g ai/ha): 45%
% herbicidal activity ([12]; Table 3.4, 42 DAT, 80 g ai/ha): 60%
% herbicidal activity ([13]; Table 2.1, DATST growth stage 14-16, 7 DAT): 25%
% herbicidal activity ([13]; Table 2.3, DATST growth stage 14-16, 21 DAT): 50%
% herbicidal activity ([13]; Table 4.2, DATST growth stage 14-16, height 5-10 cm, 42 DAT): 50%
% herbicidal activity [14]: 27%
